Measured values reported in publication PMC10310036, “Variability in phenylalanine side chain conformations facilitates broad substrate tolerance of fatty acid binding in cockroach milk proteins” (PLOS ONE, 2023).
Read-outs that look alike come from different tables or passages of the source. One block for each molecule: values may come before it.

Tests used:
Assay in all cases: intrinsic tryptophan fluorescence titration
Lili-Mip2 = target: T1, Lili-Mip2 (Diploptera punctata, UniProt Q6SVB5); format: binding
T1 construct: recombinant, codon-optimised synthetic gene, secreted from S. cerevisiae FGY217 with Ost1 or alpha-factor signal; untagged pYES2 version likely (also made with C-terminal His tag)
Excerpt: intrinsic tryptophan fluorescence titration on Lili-Mip2

Lili-Mip3 = target: T2, Lili-Mip3; format: binding, Diploptera punctata; details: 50 mM sodium acetate pH 4.8, 100 mM NaCl, 25°C, delipidated protein
T2 construct: recombinant, codon-optimised synthetic gene, secreted from S. cerevisiae FGY217 with Ost1 or alpha-factor signal; untagged pYES2 version likely (also made with C-terminal His tag)
Excerpt: intrinsic tryptophan fluorescence titration on Lili-Mip3

Lili-Mip1 = target: T3, Lili-Mip1 (Diploptera punctata, UniProt Q6SVB6); format: binding
T3 construct: recombinant, codon-optimised synthetic gene, secreted from S. cerevisiae FGY217 with Ost1 or alpha-factor signal; untagged pYES2 version likely (also made with C-terminal His tag)
Excerpt: intrinsic tryptophan fluorescence titration on Lili-Mip1

[1] = read-out: Myristoleic acid (14:1)
[2] = read-out: Palmitoleic acid (16:1)

T3 sequence (Q6SVB6 entry or part of it): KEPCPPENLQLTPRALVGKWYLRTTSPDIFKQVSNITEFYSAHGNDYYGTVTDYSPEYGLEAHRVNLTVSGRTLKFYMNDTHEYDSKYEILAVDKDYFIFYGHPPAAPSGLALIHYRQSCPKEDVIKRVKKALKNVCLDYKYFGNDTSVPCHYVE
T1 sequence (Q6SVB5 entry or part of it): as the sequence (Q6SVB6 entry or part of it) above, with K87E, V125I, A132S, P150H, H152R, V154L counted along it

Structure (SMILES): CCCCCCCCCCCCCCCC(=O)O [Palmitic acid]
- Kd (Lili-Mip2; read-out: Palmitic acid (16:0)): 1410 ± 880 nM
- Kd (Lili-Mip3; read-out: Palmitic acid (16:0)): 820 ± 610 nM
- Kd (Lili-Mip1; read-out: Palmitic acid (16:0)): 1760 ± 880 nM

Structure (SMILES): CCCCCCCCCCCCCCCCCC(=O)O [Stearic acid]
- Kd (Lili-Mip2; read-out: Stearic acid (18:0)): 2320 ± 1320 nM
- Kd (Lili-Mip3; read-out: Stearic acid (18:0)): 1780 ± 1740 nM
- Kd (Lili-Mip1; read-out: Stearic acid (18:0)): 1710 ± 560 nM

Structure (SMILES): CCCCCC/C=C\CCCCCCCC(=O)O [Palmitoleic acid]
- Kd (Lili-Mip2; [2]): 2300 ± 1320 nM
- Kd (Lili-Mip3; [2]): 880 ± 620 nM
- Kd (Lili-Mip1; [2]): 1540 ± 910 nM

Structure (SMILES): CCCCCCCC/C=C\CCCCCCCC(=O)O [Oleic acid]
- Kd (Lili-Mip2; read-out: Oleic acid (18:1)): 1710 ± 1190 nM
- Kd (Lili-Mip3; read-out: Oleic acid (18:1)): 240 ± 110 nM
- Kd (Lili-Mip1; read-out: Oleic acid (18:1)): 930 ± 310 nM

The remaining lines, values ahead:

- Kd (Lili-Mip3; read-out: Myristic acid (14:0)): 1600 ± 510 nM
- Kd (Lili-Mip1; read-out: Myristic acid (14:0)): 1960 ± 830 nM
Structure (SMILES): CCCCCCCCCCCCCC(=O)O [Myristic acid]

- Kd (Lili-Mip2; [1]): 2780 ± 500 nM
- Kd (Lili-Mip3; [1]): 680 ± 490 nM
- Kd (Lili-Mip1; [1]): 2060 ± 420 nM
Structure (SMILES): CCCC/C=C\CCCCCCCC(=O)O [Myristoleic acid]

- Kd (Lili-Mip2; read-out: Linoleic acid (18:2)): 2190 ± 1410 nM
- Kd (Lili-Mip3; read-out: Linoleic acid (18:2)): 270 ± 80 nM
- Kd (Lili-Mip1; read-out: Linoleic acid (18:2)): 1560 ± 330 nM
Structure (SMILES): CCCCC/C=C\C/C=C\CCCCCCCC(=O)O [Linoleic acid]
